Measurements published in US11072588B2, “Barbituric acid derivatives comprising cationic and lipophilic groups” (UNIVERSITETET I TROMSØ—NORGES ARKTISKE UNIVERSITET, priority 2017, dated 2021).
≈ marks a conversion by molar mass, not a printed value.

Columns and labels:
S. aureus IHT 99040 = assay: MIC, multi-resistant clinical isolate; type: cell-based, Staphylococcus aureus; conditions: for selectivity index (EC50/MIC): RBC EC50 / MIC; for MIC: Staphylococcus aureus, IHT99040, read-out: Antimicrobial activity (MIC)
Experimental: (§1) Working solutions of the test derivatives were prepared with up to 100% DMSO and stored at −20° C. If necessary, the solutions were heated to 40-80° C. before testing to facilitate complete dissolution. Double-distilled water was used in all dilutions prepared. […] A microdilution susceptibility test was used for MIC determination according to Clinical and Laboratory Standards Institute, “Methods for Dilution Antimicrobial Sisceptibility Tests for Bacteria That Graw Aerobically”, Approved Standard M07-A9, edition 2012, with modifications as described by Igumnova et al (Bioorg Med Chem, 2016, 24 (22), 5884-5894).
(§2) Briefly, the bacterial inoculum was adjusted to approximately 2.5-3×10^4 cells/mL in Mueller-Hinton broth (MHB, Difco Laboratories, USA), and incubated in a ratio of 1:1 with test derivatives in polystyrene 96-well flat-bottom microplates (NUNC, Roskilde, Denmark). Positive growth control (without test derivatives) and negative control (without bacteria) were included. The reference antibiotic was oxytetracycline hydrochloride (Sigma Aldrich, Saint Louis, Mo., USA). The microplates were incubated in an EnVision microplate reader (Perkin-Elmer, Turku, Finland) placed in an incubator set to 35° C. for 48 h. The MIC value was defined as the lowest concentration of derivative resulting in no bacterial growth as determined by OD600 measurement. All derivatives were tested in three parallels.
(§3) The MIC was determined as explained above with some exceptions; working solutions of test derivatives were prepared from concentrated DMSO stocks stored at room temperature, the density of the bacterial inoculum was increased 40× to 1-1.2×10^6 cells/mL, enterococci were incubated in Brain Heart Infusion broth (BHIB, Difco Laboratories, USA), the microplates were incubated for 24 h, and the derivatives were tested in four parallels.

S. aureus N315 = assay: MIC, multi-resistant clinical isolate; type: cell-based, Staphylococcus aureus; conditions: for selectivity index (EC50/MIC): RBC EC50 / MIC, S. aureus N315; for MIC: Staphylococcus aureus, N315, read-out: Antimicrobial activity (MIC)
Experimental: as §1, §2, §3

S. aureus NCTC 10442 = assay: MIC, multi-resistant clinical isolate; type: cell-based, Staphylococcus aureus; conditions: for selectivity index (EC50/MIC): RBC EC50 / MIC, S. aureus NCTC 10442; for MIC: Staphylococcus aureus, NCTC10442, read-out: Antimicrobial activity (MIC)
Experimental: as §1, §2, §3

S. aureus strain 85/2082 = assay: MIC, multi-resistant clinical isolate; type: cell-based, Staphylococcus aureus; conditions: for selectivity index (EC50/MIC): RBC EC50 / MIC, S. aureus strain 85/2082; for MIC: Staphylococcus aureus, 85/2082, read-out: Antimicrobial activity (MIC)
Experimental: as §1, §2, §3

S. aureus strain WIS = assay: MIC, multi-resistant clinical isolate; type: cell-based, Staphylococcus aureus; conditions: for selectivity index (EC50/MIC): RBC EC50 / MIC, S. aureus strain WIS; for MIC: Staphylococcus aureus, read-out: Antimicrobial activity (MIC)
Experimental: as §1, §2, §3

E. coli 50579417 = assay: MIC, multi-resistant clinical isolate; type: cell-based, Escherichia coli; conditions: for MIC: Escherichia coli, read-out: Antimicrobial activity (MIC); for selectivity index (EC50/MIC): RBC EC50 / MIC
E. coli 50676002 = assay: MIC, multi-resistant clinical isolate; type: cell-based, Escherichia coli; conditions: E. coli 50676002; for MIC: Escherichia coli, read-out: Antimicrobial activity (MIC); for selectivity index (EC50/MIC): RBC EC50 / MIC
E. coli 50739822 = assay: MIC, multi-resistant clinical isolate; type: cell-based, Escherichia coli; conditions: for MIC: Escherichia coli, read-out: Antimicrobial activity (MIC); for selectivity index (EC50/MIC): RBC EC50 / MIC
A. baumanii K12-21 = assay: MIC, multi-resistant clinical isolate; type: cell-based, Acinetobacter baumannii; conditions: for MIC: Acinetobacter baumannii, K1221, read-out: Antimicrobial activity (MIC); for selectivity index (EC50/MIC): RBC EC50 / MIC
Experimental: as §1, §2, §3

A. baumanii K44-35 = assay: MIC, multi-resistant clinical isolate; type: cell-based, Acinetobacter baumannii; conditions: for MIC: Acinetobacter baumannii, K4435, read-out: Antimicrobial activity (MIC); for selectivity index (EC50/MIC): RBC EC50 / MIC
Experimental: as §1, §2, §3

A. baumanii K47-42 = assay: MIC, multi-resistant clinical isolate; type: cell-based, Acinetobacter baumannii; conditions: for MIC: Acinetobacter baumannii, K4742, read-out: Antimicrobial activity (MIC); for selectivity index (EC50/MIC): RBC EC50 / MIC
Experimental: as §1, §2, §3

A. baumanii K55-13 = assay: MIC, multi-resistant clinical isolate; type: cell-based, Acinetobacter baumannii; conditions: for MIC: Acinetobacter baumannii, K5513, read-out: Antimicrobial activity (MIC); for selectivity index (EC50/MIC): RBC EC50 / MIC
Experimental: as §1, §2, §3

A. baumanii K63-58 = assay: MIC, multi-resistant clinical isolate; type: cell-based, Acinetobacter baumannii; conditions: A. baumanii K63-58, resistant to colistin; for MIC: Acinetobacter baumannii, K6358, 24 h, read-out: Antimicrobial activity (MIC); for selectivity index (EC50/MIC): RBC EC50 / MIC
Experimental: as §1, §2, §3

[1] = system: human metastatic melanoma (A2058, ATCC CRL-11147) cells; assay: Anti-cancer activity against A2058 cells; type: cell-based; conditions: A2058, read-out: Anti-cancer IC50
Experimental: Cytotoxicity of the test compounds was evaluated after 72 hour exposure to human metastatic melanoma (A2058, ATCC CRL-11147) cells.
A2058 cells were grown overnight (2,000 cells/well), and then incubated with the test compounds (range of concentrations) diluted in MEM Earle's supplemented with gentamycin (10 μg/mL), non-essential amino acids (1%), sodium pyruvate (1 mM), L-alanyl-Lglutamine (2 mM), but without FBS (total volume was 100 μl) for […]. Ten μL of CellTiter 96® AQueous One Solution Reagent (Promega, Madison, Wis., USA) was added, and the plates were then further incubated for 1 hour.
Absorbance was measured at 485 nm in a DTX 880 Multimode Detector. Results were calculated as % survival compared to negative (assay media) and positive (Triton X-100; Sigma-Aldrich) controls.

[2] = system: antibiotic susceptible Gram-positive and Gram-negative reference strains; assay: MIC assay, ranges over the reference strains; type: cell-based; conditions: reference strains, range; read-out: MIC values against the Gram-negative bacteria E. coli and P. aeruginosa
Experimental: as §1, §2

| Structure (SMILES) | selectivity index (EC50/MIC) (S. aureus IHT 99040) | MIC (S. aureus IHT 99040) [µg/mL] | selectivity index (EC50/MIC) (S. aureus N315) | MIC (S. aureus N315) [µg/mL] | selectivity index (EC50/MIC) (S. aureus NCTC 10442) | MIC (S. aureus NCTC 10442) [µg/mL] | selectivity index (EC50/MIC) (S. aureus strain 85/2082) | MIC (S. aureus strain 85/2082) [µg/mL] | selectivity index (EC50/MIC) (S. aureus strain WIS) | MIC (S. aureus strain WIS) [µg/mL] | MIC (E. coli 50579417) [µg/mL] | selectivity index (EC50/MIC) (E. coli 50579417) | MIC (E. coli 50676002) [µg/mL] | selectivity index (EC50/MIC) (E. coli 50676002) | MIC (E. coli 50739822) [µg/mL] | selectivity index (EC50/MIC) (E. coli 50739822) | MIC (A. baumanii K12-21) [µg/mL] | selectivity index (EC50/MIC) (A. baumanii K12-21) | MIC (A. baumanii K44-35) [µg/mL] | selectivity index (EC50/MIC) (A. baumanii K44-35) | also measured |
| --- | --- | --- | --- | --- | --- | --- | --- | --- | --- | --- | --- | --- | --- | --- | --- | --- | --- | --- | --- | --- | --- |
| N=C(N)NCCCCN1C(=O)N(CCCCNC(=N)N)C(=O)C(Cc2cc(Br)cc(Br)c2)(Cc2cc(Br)cc(Br)c2)C1=O [8(ii), 1,1′-(4,4′-(5,5-bis(3,5-dibromobenzyl)-2,4,6-trioxodihydropyrimidine-1,3(2H,4H)-diyl)bis(butane-4,1-diyl))diguanidine] | (28) | 2 (≈ 2.35 µM) | (28) | 2 (≈ 2.35 µM) | (28) | 2 (≈ 2.35 µM) | (28) | 2 (≈ 2.35 µM) | (28) | 2 (≈ 2.35 µM) | 4 (≈ 4.7 µM) | (14) | 4 (≈ 4.7 µM) | (14) | 4 (≈ 4.7 µM) | (14) | 4 (≈ 4.7 µM) | (14) | 4 (≈ 4.7 µM) | (14) | MIC (A. baumanii K47-42): 4 µg/mL (≈ 4.7 µM); selectivity index (EC50/MIC) (A. baumanii K47-42): (14); MIC (A. baumanii K55-13): 8 µg/mL (≈ 9.41 µM); selectivity index (EC50/MIC) (A. baumanii K55-13): (7); MIC (A. baumanii K63-58): 4 µg/mL (≈ 4.7 µM); selectivity index (EC50/MIC) (A. baumanii K63-58): (14); IC50 [1]: 2 µg/mL (≈ 2.35 µM); MIC [2]: 1 to 4 µg/mL (≈ 1.18 to 4.7 µM) |
| CC(C)(C)c1cc(CC2(Cc3cc(C(C)(C)C)cc(C(C)(C)C)c3)C(=O)N(CCCCNC(=N)N)C(=O)N(CCCCNC(=N)N)C2=O)cc(C(C)(C)C)c1 [8(iii), 1,1′-(4,4′-(5,5-bis(3,5-di-tert-butylbenzyl)-2,4,6-trioxodihydropyrimidine-1,3(2H,4H)-diyl)bis(butane-4,1-diyl))-diguanidine] | (<2) | 2 (≈ 2.63 µM) | (<1) | 4 (≈ 5.27 µM) | (<2) | 2 (≈ 2.63 µM) | (<2) | 2 (≈ 2.63 µM) | (<2) | 2 (≈ 2.63 µM) | 16 (≈ 21.1 µM) | (<0.25) | 16 (≈ 21.1 µM) | (<0.25) | 8 (≈ 10.5 µM) | (<0.5) | 4 (≈ 5.27 µM) | (<1) | 4 (≈ 5.27 µM) | (<1) | MIC (A. baumanii K47-42): 4 µg/mL (≈ 5.27 µM); selectivity index (EC50/MIC) (A. baumanii K47-42): (<1); MIC (A. baumanii K55-13): 4 µg/mL (≈ 5.27 µM); selectivity index (EC50/MIC) (A. baumanii K55-13): (<1); MIC (A. baumanii K63-58): 4 µg/mL (≈ 5.27 µM); selectivity index (EC50/MIC) (A. baumanii K63-58): (<1); IC50 [1]: 33 µg/mL (≈ 43.5 µM); MIC [2]: 4 µg/mL (≈ 5.27 µM) |
